Measurements taken from ChEMBL document CHEMBL1157539, “Thousands of chemical starting points for antimalarial lead identification” (Nature, 2010).

system: Plasmodium falciparum; assay: GSK_TCMDC: Inhibition of Plasmodium falciparum 3D7 in whole erythrocytes, using parasite LDH activity as an index of growth.; type: functional, organism-based; conditions: Plasmodium falciparum, 3D7

Row | Compound | XC50 [nM]
1 | COc1ccc2c(N/N=C/c3ccccc3[N+](=O)[O-])ccnc2c1 | 739
2 | CC1(C(=O)Nc2ccc([N+](=O)[O-])cc2O)CC2c3ccccc3C1c1ccccc12 (stereo not drawn) | 715
3 | CCC1CN2CCc3cc(OC)c(OC)cc3C2CC1CC1NCCc2cc(OC)c(OC)cc21 (stereo not drawn) | 145
4 | N#Cc1cccc(-c2cccc(C(=O)NC3CCC(CCN4CCc5ccc(C#N)cc5CC4)CC3)c2)c1 (stereo not drawn) | 265
5 | CCN1CCN(Cc2ccc(NC(=O)c3cc4ccc5cccnc5c4[nH]3)cc2)CC1 | 848
6 | O=C(Nc1cc(Cl)cc(Cl)c1)c1cnn(-c2ccc(F)cc2)c1C1CCNCC1 | 853
7 | COc1ccc2nc3cc(Cl)ccc3c(NCCCN3CCNCC3)c2c1 | 232
8 | Nc1ncc(-c2ccccc2)cc1-c1cccc2ncccc12 | 272
9 | CCOC(=O)C1=C(C)N=c2sc(=Cc3cc(Cl)ccc3O)c(=O)n2C1c1ccc(OC)cc1 (stereo not drawn) | 746
10 | COc1cc(CN2CCC(CO)(Cc3cccc(C(F)(F)F)c3)CC2)c(Cl)cc1O | 896
11 | COc1cc2nc(N3CCC(CNC(=O)c4ccc(NC(=O)c5ccc(Cl)cc5)cc4)CC3)nc(N)c2cc1OC | 264
12 | CN1CCCc2cc(NC(=O)C=Cc3ccc(-c4ccc(F)cc4F)o3)ccc2C1 | 783
13 | CS(=O)(=O)c1ccc(OCCCN(Cc2ccccc2C(F)(F)F)c2ccc(C#N)c(C(F)(F)F)c2)cc1 | 1020
14 | O=C(N[C@@H](CC1CCCCC1)C(=O)NC1CCCc2ccccc21)c1ccc(O)c(-c2cccc(C(F)(F)F)c2)c1 (stereo partly drawn) | 600
15 | COc1cccc(C(=O)Nc2ccc(Nc3nc(C)cc(N(C)C)n3)cc2)c1 | 940
16 | CC(C)NCc1ccc(-c2ccc(NC(=O)c3cccc(C#N)c3)cc2)cc1 | 654
17 | OCCN1CCN(C(=S)Nc2ccccc2)CC1 | 936
18 | COc1ccc2nccc([C@@H](O)CN3CCC(NCc4cc5cccc(O)c5[nH]4)CC3)c2c1 | 836
19 | Clc1ccc(-c2cc(-c3csc(NCCN4CCOCC4)n3)on2)c(Cl)c1 | 660
20 | O=C(/C=C/c1ccc(Cl)c(Cl)c1)NC1CCN(Cc2cccc(O)c2)CC1 | 880
21 | CCCNCc1ccc(-c2ccc(CN(CCOC)C(=O)c3ccccc3)cc2)nc1 | 876
22 | COC(=O)c1ccc2c(-c3nc4ccc(OC)cc4[nH]3)c[nH]c2c1 | 876
23 | Cc1ccc(Nc2nc(C)cc(NC3CC3)n2)cc1 | 1220
24 | O=C(Nc1cccc(CN2CCCN(Cc3ccc(O)cc3)CC2)c1)c1ccc(Br)cc1 | 800
25 | CC(C)C[C@H]1C(=O)N[C@H](C2Cc3ccccc3C2)C(=O)N1[C@@H](C(=O)Nc1ccccc1OCc1ccccc1)c1ccc(F)cc1F | 1020

Row | Compound | XC50 [nM]
26 | COc1ccc2nccc([C@@H](O)CN3CCC(NCc4cc5sccc5nc4C(F)(F)F)CC3)c2c1 | 913
27 | CCN(CC)CCNc1ccnc2[nH]c3ccc(I)cc3c12 | 230
28 | CCN(CC)/C(=N\CCCCCC/N=C(\NC(=N)c1ccc(Cl)cc1)N(CC)CC)NC(=N)c1ccc(Cl)cc1 | 381
29 | CC(C)(C)C1CC(=O)CC2C(=O)N(C3CCCCC3)C(=O)C21 (stereo not drawn) | 421
30 | COc1ccccc1CCNc1nc(C)cc(N[C@@H](Cc2ccccc2)C(=O)NCc2cccc(F)c2)n1 | 867
31 | CCOc1ccc(C(=O)Nc2cc3c(c(C(F)(F)F)c2)CCNC3)cc1Cl | 1060
32 | COc1cc(Cc2cnc(N)nc2N)ccc1OCc1ccc(NC(C)=O)cc1 | 368
33 | CC(C)c1ccc(NC(=O)Nc2ccc(Cn3ncc(N4CCCNCC4)c(Cl)c3=O)cc2)cc1 | 1050
34 | O=C(/C=C/c1ccc(C(F)(F)F)cc1)NCCCCCN1CCN(C(=O)Nc2ccc(F)c(Cl)c2)CC1 | 1210
35 | O=C(Nc1ccc(OC2CCN(Cc3ccsc3)C2)c(Cl)c1)c1ccsc1 (stereo not drawn) | 1020
36 | CC(C)(C)c1ccc(CN2CCC(NC(=O)c3ccc(-c4ccccc4Cl)s3)CC2)cc1 | 1350
37 | CC(C)COc1ccc(Cl)cc1Cc1ccc(-c2nc3ccc(F)cc3[nH]2)o1 | 854
38 | Clc1ccc2c(NCCCCCCCCNc3ccnc4cc(Cl)ccc34)ccnc2c1 | 482
39 | O=C(NC(c1ccccc1)c1ccc2cccnc2c1O)c1ccccc1 (stereo not drawn) | 428
40 | O=C(C=Cc1ccc(F)cc1)NC1CCC(CCN2CCc3ccc(-c4cnccn4)cc3CC2)CC1 (stereo not drawn) | 695
41 | CCCOc1cccc(C(=O)N[C@@H](Cc2ccccc2)[C@H](O)CNCc2ccccc2OC)c1 | 883
42 | CCNC(=O)NC1CCN(Cc2c(-c3cccs3)nc3ccccc3c2C(=O)N[C@@H](C)C2CCCCC2)CC1 | 91.3
43 | CC(Cc1ccc(OCCOc2ccccc2)cc1)NCC(O)c1cccc(Cl)c1 (stereo not drawn) | 1040
44 | CCCN1CCN(CC(O)CNC(=O)Nc2ccc(Cl)cc2)CC1 (stereo not drawn) | 96.9
45 | Fc1cccc(C=NNc2ccnc3cc(Cl)ccc23)c1 | 528
46 | COc1ccc(-c2ccc(NC(=O)c3cccc(C#N)c3)cc2)cc1CN1CCNCC1 | 728
47 | O=C(NC1CC1c1ccccc1)N(CCCn1ccnc1)Cc1csc(-c2ccc(CNCc3ccccc3)cc2)n1 (stereo not drawn) | 854
48 | Cc1cc(O)c(CN2CCN(Cc3cccs3)CC2)cc1C(C)C | 716
49 | N=c1n(CCN2CCCCC2)c2ccccc2n1CC(O)c1ccc(Cl)c(Cl)c1 (stereo not drawn) | 320
50 | NC1CCN(c2nc(NCCCc3ccc(O)cc3)nc(NCc3ccccc3-c3ccc(C(F)(F)F)cc3)n2)CC1 | 727

Row | Compound | XC50 [nM]
51 | CCc1cccc(-n2c(=O)c3cccnc3n2CC(=O)NCc2ccccc2Cl)c1 | 741
52 | O=C(NCCCCN1CCC(c2ccc(-c3ccco3)cc2)CC1)c1ccc(NC(=O)c2ccc(Cl)cc2)cc1 | 538
53 | COc1c(C2=CCN(CCCCNC(=O)c3ccc(-c4ccc(C#N)cc4)cc3)CC2)ccc2c1CCCC2 | 911
54 | CC/N=C(/NCCCCCCN/C(=N/CC)NCc1ccccc1)NCc1ccccc1 | 702
55 | OCCN1CCN(Cc2ccc(-c3ccc(-c4nc5cc(C(F)(F)F)ccc5[nH]4)s3)cc2)CC1 | 379
56 | O=C(Nc1ccc(Cl)cc1)c1ccc(CN2CCCN(Cc3cccc(O)c3)CC2)cc1 | 388
57 | CCCCCCN1CCN(Cc2cccc(NC(=O)c3cc4ccccc4s3)c2)CC1 | 912
58 | O=C(NCCCN1CCCC1=O)c1cnc(N2CCC(Oc3ccccc3)CC2)c(Cl)c1 | 305
59 | O=C(C=Cc1ccc(-c2nc3ccccc3[nH]2)cc1)NC1CCN(Cc2ccccc2)CC1 | 740
60 | O=C(Nc1ccc(-c2nc3ccccc3[nH]2)cc1)c1ccc(-c2cccc([N+](=O)[O-])c2)o1 | 267
61 | Cc1ccc(Nc2nc(C)cc(Nc3cccc(C#N)c3)n2)cc1 | 978
62 | CN(C)c1ccc(-c2csc(C(=O)NC3CCN(CCC(C)(C)C)C3)c2)cc1 (stereo not drawn) | 971
63 | N#Cc1cccc(C(=O)Nc2cccc(-c3ccc(CN4CCC(O)CC4)cc3)c2)c1 | 1300
64 | O=C(Nc1cccc(Cl)c1N1CCOCC1)C(Cl)(Cl)Cl | 983
65 | Cc1nc(C)c(-c2ccc(S(=O)(=O)c3ccc(Cl)cc3)cc2)c(O)c1Cl | 140
66 | Nc1ccc2c(N)c3ccccc3nc2c1 | 812
67 | COc1ccc(Nc2nccc(N3CCC(NC(=O)c4cccc(C#N)c4)C3)n2)cc1 (stereo not drawn) | 819
68 | NC1CCCN(Cc2cccc(-c3ccc(-c4nc5cc(C(F)(F)F)ccc5[nH]4)cc3)c2)C1 (stereo not drawn) | 518
69 | CC(C)CN(c1nc(C(=O)NNC(=O)[C@H](CC2CC2)NC(=O)c2cc3cc(OCCN(C)C)ccc3o2)cs1)C1CC1 | 1030
70 | Cc1cc(N[C@@H](CC(C)C)C(=O)NCCCOC(C)C)nc(NCCc2ccc(F)cc2)n1 | 1250
71 | O=C(Nc1ccc(Cn2ncc(N3CCCNCC3)c(Cl)c2=O)cc1)Nc1cccc(C(F)(F)F)c1 | 640
72 | CC(=O)Nc1cccc(CNc2cc(C)nc(Nc3ccc(C)cc3)n2)c1 | 1140
73 | Brc1cc(Br)c2c(c1)C(NCCCNC1CCNc3c(Br)cc(Br)cc31)CCN2 (stereo not drawn) | 823
74 | O=C(Nc1ccc(C(F)(F)F)cc1)c1cc(Br)cnc1NCCCn1ccnc1 | 968
75 | COc1cc(Cc2cnc(N)nc2N)ccc1OCc1cccc(Oc2ccccc2)c1 | 1330

Row | Compound | XC50 [nM]
76 | COc1cccc(CNC[C@@H](O)[C@H](Cc2ccccc2)NC(=O)c2cc(OC(C)C)cc(N3CCCCS3(=O)=O)c2)c1 | 730
77 | COc1nc2c(CCN3CC[C@H](NCc4cc(C#N)c5c(c4)OCCO5)[C@H](O)C3)ccnc2cc1F | 783
78 | O=C(NC1CCN(Cc2cccc(C(F)(F)F)c2)CC1)c1ccc(-c2cccc(C(F)(F)F)c2)s1 | 1010
79 | CN(C)C(=O)c1cc(CNCc2ccccc2)ccc1-c1cccc(CNCc2ccc(-c3ccccc3)cc2)c1 | 1050
80 | N#Cc1ccc(CN2CCC(Oc3ccc(NC(=O)c4ccsc4)cc3Cl)C2)cc1 (stereo not drawn) | 674
81 | CN(c1ccc2c(c1)nc(Nc1ccc(Cl)cc1)n2C)c1ccnc(Nc2ccc(CS(C)(=O)=O)cc2)n1 | 758
82 | CC(=O)Nc1ccc(C#Cc2ccc(-c3c(C)[nH]c(C)c(Cl)c3=O)cc2)cc1 | 462
83 | CC(=O)C1(c2ccccc2)CCN(CCC2(c3ccc(Cl)c(Cl)c3)CN(C(=O)CC(C)C)CCO2)CC1 (stereo not drawn) | 644
84 | COc1ccc2nc3cc(Cl)ccc3c(NCCNCC(O)CO)c2n1 (stereo not drawn) | 152
85 | CCCc1ccc(NC(=O)c2ccc(CN3CCCN(CC4CCCCC4)CC3)cc2)cc1 | 524
86 | CC1(C)NC(N)=NC(=N)N1OCCCc1cc(Cl)c(Cl)cc1Cl | 3.2
87 | Cc1cc(CNCC(CCNc2cc(=O)c3ccccc3[nH]2)NCc2cc(Br)cc(Br)c2)oc1C (stereo not drawn) | 894
88 | COc1cc(C(=O)Nc2ccc3nc(N4CCN(C)CC4)cc(C)c3c2)cc(OC)c1OC | 289
89 | O=C(Nc1cccc(-c2cccc(-c3nc4cc(F)ccc4[nH]3)c2)c1)c1c[nH]cn1 | 459
90 | O=C(C1CC1)N1c2ccccc2CCc2ccccc21 | 833
91 | Fc1ccc2[nH]c(-c3ccc(-c4ccc(CNCc5ccccc5)cc4)cc3)nc2c1 | 284
92 | c1ccc(CN2CCC(NCc3ccc(-c4cccc(CNC5CCCC5)c4)cc3)CC2)cc1 | 339
93 | O=C(NCC1CCC(C(=O)NC2CCCc3ccccc32)CC1)c1ccc(O)c(-c2cccc([N+](=O)[O-])c2)c1 (stereo not drawn) | 942
94 | O=S(=O)(NCCN1CCCC1)c1ccc(-c2ccc(CNCc3ccccc3)cc2)cc1F | 1290
95 | CCC[C@@H]([C@@H](CC(C)C)C(=O)N[C@@H](CCCCNC(=O)c1cccc(OC)c1)C(=O)Nc1nccs1)N(O)C=O | 104
96 | Cc1cccc2nc(-c3ccc(-c4ccc(NC(=O)Nc5ccsc5)cc4)cc3)[nH]c12 | 171
97 | Nc1n[nH]c(-c2ccccc2Nc2ccnc3cc(-c4nccs4)ccc23)n1 | 1120
98 | COCCNCc1cccc(-c2ccc3c(Nc4ccc(F)cc4Cl)ccnc3c2)c1 | 680
